Patent US10428051B2 (priority 2015, dated 2019)
pKi: −log10 of the molar value.

Target: human σ1 receptor (Homo sapiens, UniProt Q99720)
Experiment: biochemical
Type: binding
Parameters: μ and σ1 dual (binding to the σ1 receptor and the μ-opioid receptor expressed as Ki): key to the marks not given beside the values

Sequence of human σ1 receptor (Q99720 whole entry): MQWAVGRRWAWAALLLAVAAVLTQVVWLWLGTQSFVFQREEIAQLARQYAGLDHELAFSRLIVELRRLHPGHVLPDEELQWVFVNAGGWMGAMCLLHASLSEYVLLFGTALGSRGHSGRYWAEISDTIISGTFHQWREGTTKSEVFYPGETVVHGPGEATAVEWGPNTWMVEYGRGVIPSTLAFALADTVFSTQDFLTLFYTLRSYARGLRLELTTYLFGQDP

CCC(=O)N(CC1(N2CCN(CCOC(C)C)CC2)CCOC2(CCCC2)C1)c1cccc(C(F)(F)F)n1 (centres unmarked) [Example 174, N-((9-(4-(2-isopropoxyethyl)piperazin-1-yl)-6-oxaspiro[4.5]decan-9-yl)methyl)-N-(6-(trifluoromethyl)pyridin-2-yl)propionamide]
pKi: > 6.30

CCC(=O)N(CC1(N2CCN(Cc3ccc(C(=O)NC)cc3)CC2)CCOCC1)c1ccccc1 [Example 125, N-methyl-4-((4-(4-((N-phenylpropionamido)methyl)tetrahydro-2H-pyran-4-yl)piperazin-1-yl)methyl)benzamide]
μ and σ1 dual (binding to the σ1 receptor and the μ-opioid receptor expressed as Ki): ++

CCC(=O)N(CC1(N2CCN(CCOC(C)C)CC2)CCOCC1)c1ncccc1F [Example 157, N-(3-fluoropyridin-2-yl)-N-((4-(4-(2-isopropoxyethyl)piperazin-1-yl)tetrahydro-2H-pyran-4-yl)methyl)propionamide]
pKi: > 6.30

CCC(=O)N(CC1(N2CCN(Cc3cccc(F)c3)CC2)CC1)c1ccccc1 [Example 116, N-((1-(4-(3-fluorobenzyl)piperazin-1-yl)cyclopropyl)methyl)-N-phenylpropionamide]
pKi: > 7.00

CCC(=O)N(CC1(N2CCN(CC(C)C)CC2)CCOCC1)c1ccccc1 [Example 135, N-((4-(4-isobutylpiperazin-1-yl)tetrahydro-2H-pyran-4-yl)methyl)-N-phenylpropionamide]
pKi: > 6.30

CCC(=O)N(CC1(N2CCN(Cc3ccc(F)cn3)CC2)CC1)c1ccccc1 [Example 121, N-((1-(4-((5-fluoropyridin-2-yl)methyl)piperazin-1-yl)cyclopropyl)methyl)-N-phenylpropionamide]
pKi: < 6.30

CCC(=O)N(CC1(N2CCN(Cc3ccccc3)CC2)CCOCC1)c1ccncc1 [Example 12, N-((4-(4-benzylpiperazin-1-yl)tetrahydro-2H-pyran-4-yl)methyl)-N-(pyridin-4-yl)propionamide]
pKi: < 6.30

CCC(=O)N(CC1(N2CCN(C(C)COC)CC2)CCOCC1)c1cccc(C(F)(F)F)n1 (centres unmarked) [Example 112, N-((4-(4-(1-methoxypropan-2-yl)piperazin-1-yl)tetrahydro-2H-pyran-4-yl)methyl)-N-(6-(trifluoromethyl)pyridin-2-yl)propionamide]
μ and σ1 dual (binding to the σ1 receptor and the μ-opioid receptor expressed as Ki): ++

CCC(=O)N(CC1(N2CCN(Cc3cccnc3)CC2)CC1)c1ccccc1 [Example 119, N-phenyl-N-((1-(4-(pyridin-3-ylmethyl)piperazin-1-yl)cyclopropyl)methyl)propionamide]
pKi: > 6.30

CCC(=O)N(CC1(N2CCN(Cc3ccccc3)CC2)CCOCC1)c1cncc(F)c1 [Example 10, N-((4-(4-benzylpiperazin-1-yl)tetrahydro-2H-pyran-4-yl)methyl)-N-(5-fluoropyridin-3-yl)propionamide]
pKi: > 6.30

CCNC(=O)N(CC(C)(C)N1CCN(Cc2ccccc2)CC1)c1ccccc1 [Example 48, 1-(2-(4-benzylpiperazin-1-yl)-2-methylpropyl)-3-ethyl-1-phenylurea]
μ and σ1 dual (binding to the σ1 receptor and the μ-opioid receptor expressed as Ki): ++

CCC(=O)N(CC1(N2CC3CN(CC(C)C)CC3C2)CCOCC1)c1cccc(C(F)(F)F)n1 (centres unmarked) [Example 199, N-((4-(5-isobutylhexahydropyrrolo[3,4-c]pyrrol-2(1H)-yl)tetrahydro-2H-pyran-4-yl)methyl)-N-(6-(trifluoromethyl)pyridin-2-yl)propionamide]
pKi: < 6.30

CCC(=O)N(CC1(N2CCN(CCC(C)C)CC2)CC1)c1cccc(C(F)(F)F)n1 [Example 124, N-((1-(4-isopentylpiperazin-1-yl)cyclopropyl)methyl)-N-(6-(trifluoromethyl)pyridin-2-yl)propionamide]
pKi: > 7.00

COCC(=O)N(CC1(N2CCN(Cc3ccccc3)CC2)CCOCC1)c1ccccc1 [Example 37, N-((4-(4-benzylpiperazin-1-yl)tetrahydro-2H-pyran-4-yl)methyl)-2-methoxy-N-phenylacetamide]
pKi: > 6.30

CCOCCN1CCN(C2(CN(C(=O)CC)c3ccccn3)CCOC(C)(C)C2)CC1 (centres unmarked) [Example 165, N-((4-(4-(2-ethoxyethyl)piperazin-1-yl)-2,2-dimethyltetrahydro-2H-pyran-4-yl)methyl)-N-(pyridin-2-yl)propionamide]
pKi: < 6.30

CCC(=O)N(CC1(N2CCN(CCc3ccccc3)CC2)CCCCC1)c1ccccn1 [Example 21, N-((1-(4-phenethylpiperazin-1-yl)cyclohexyl)methyl)-N-(pyridin-2-yl)propionamide]
pKi: > 6.30

CCC(=O)N(CC1(N2CCN(Cc3cccc(F)c3)CC2)CCOCC1)c1ccccn1 [Example 110, N-((4-(4-(3-fluorobenzyl)piperazin-1-yl)tetrahydro-2H-pyran-4-yl)methyl)-N-(pyridin-2-yl)propionamide]
pKi: > 6.30

CCC(=O)N(CC1(N2CCN(CC(C)C)CC2)CCOC(C)(C)C1)c1ccccn1 (centres unmarked) [Example 166, N-((4-(4-isobutylpiperazin-1-yl)-2,2-dimethyltetrahydro-2H-pyran-4-yl)methyl)-N-(pyridin-2-yl)propionamide]
pKi: < 6.30

CCC(=O)N(CC1(N2CCN(CC(C)C)CC2)CCOCC1)c1ncccc1F [Example 158, N-(3-fluoropyridin-2-yl)-N-((4-(4-isobutylpiperazin-1-yl)tetrahydro-2H-pyran-4-yl)methyl)propionamide]
μ and σ1 dual (binding to the σ1 receptor and the μ-opioid receptor expressed as Ki): ++

CCC(=O)N(CC1(N2CCN(CC(C)C)CC2)CCOC(C)(C)C1)c1cccc(C#N)n1 (centres unmarked) [Example 87, N-(6-cyanopyridin-2-yl)-N-((4-(4-isobutylpiperazin-1-yl)-2,2-dimethyltetrahydro-2H-pyran-4-yl)methyl)propionamide]
pKi: < 6.30

CCC(=O)N(CC1(N2CCN(CCC(C)C)CC2)CCOCC1)c1ccccn1 [Example 153, N-((4-(4-isopentylpiperazin-1-yl)tetrahydro-2H-pyran-4-yl)methyl)-N-(pyridin-2-yl)propionamide]
μ and σ1 dual (binding to the σ1 receptor and the μ-opioid receptor expressed as Ki): ++

CCC(=O)N(CC1(N2CCN(C(C)c3ccccc3)CC2)CCOCC1)c1ccccn1 (centres unmarked) [Example 134, N-((4-(4-(1-phenylethyl)piperazin-1-yl)tetrahydro-2H-pyran-4-yl)methyl)-N-(pyridin-2-yl)propionamide]
μ and σ1 dual (binding to the σ1 receptor and the μ-opioid receptor expressed as Ki): ++

CCC(=O)N(CC1(N2CCN(Cc3ccccc3)CC2)CCOCC1)c1ccccn1 [Example 56, N-((4-(4-benzylpiperazin-1-yl)tetrahydro-2H-pyran-4-yl)methyl)-N-(pyridin-2-yl)propionamide]
pKi: > 6.30

CCC(=O)N(CC(C)C)CC1(N2CCN(Cc3ccccc3)CC2)CCOCC1 [Example 15, N-((4-(4-benzylpiperazin-1-yl)tetrahydro-2H-pyran-4-yl)methyl)-N-isobutylpropionamide]
μ and σ1 dual (binding to the σ1 receptor and the μ-opioid receptor expressed as Ki): ++

CC(C)(CN(C(=O)c1ccco1)c1ccccc1)N1CCN(CCc2ccccc2)CC1 [Example 44, N-(2-methyl-2-(4-phenethylpiperazin-1-yl)propyl)-N-phenylfuran-2-carboxamide]
pKi: > 7.00

CCC(=O)N(CC1(N2CCN(Cc3ccccc3)CC2)CCOC2(CCCC2)C1)c1ccccn1 (centres unmarked) [Example 17, N-((9-(4-benzylpiperazin-1-yl)-6-oxaspiro[4.5]decan-9-yl)methyl)-N-(pyridin-2-yl)propionamide]
pKi: > 6.30

CCC(=O)N(CC1(N2CCN(CCC(C)C)CC2)CCOC(C)(C)C1)c1ccccn1 (centres unmarked) [Example 164, N-((4-(4-isopentylpiperazin-1-yl)-2,2-dimethyltetrahydro-2H-pyran-4-yl)methyl)-N-(pyridin-2-yl)propionamide]
μ and σ1 dual (binding to the σ1 receptor and the μ-opioid receptor expressed as Ki): ++

O=C(c1cccs1)N(CC1(N2CCN(Cc3ccccc3)CC2)CC1)c1ccccn1 [Example 47, N-((1-(4-benzylpiperazin-1-yl)cyclopropyl)methyl)-N-(pyridin-2-yl)thiophene-2-carboxamide]
μ and σ1 dual (binding to the σ1 receptor and the μ-opioid receptor expressed as Ki): ++

CCC(=O)N(CC1(N2CCN(Cc3ccccc3)CC2)CCOC(C)(C)C1)c1ncccc1F (centres unmarked) [Example 64, N-((4-(4-benzylpiperazin-1-yl)-2,2-dimethyltetrahydro-2H-pyran-4-yl)methyl)-N-(3-fluoropyridin-2-yl)propionamide]
pKi: > 6.30

CCC(=O)N(CC1(N2CCN(CCC(C)C)CC2)CCOCC1)c1ncccc1F [Example 155, N-(3-fluoropyridin-2-yl)-N-((4-(4-isopentylpiperazin-1-yl)tetrahydro-2H-pyran-4-yl)methyl)propionamide]
pKi: > 6.30

CCC(=O)N(CC1(N2CCN(Cc3ccccc3)CC2)CCOCC1)c1cccc(F)c1 [Example 5, N-((4-(4-benzylpiperazin-1-yl)tetrahydro-2H-pyran-4-yl)methyl)-N-(3-fluorophenyl)propionamide]
pKi: > 7.00

CCC(=O)N(CC1(N2CCN(Cc3ccccc3)CC2)CCOCC1)c1ccc(F)c(C#N)n1 [Example 61, N-((4-(4-benzylpiperazin-1-yl)tetrahydro-2H-pyran-4-yl)methyl)-N-(6-cyano-5-fluoropyridin-2-yl)propionamide]
pKi: > 6.30

CCC(=O)N(CC1(N2CCN(CC(=O)N3CCCCC3)CC2)CCOCC1)c1ccccc1 [Example 127, N-((4-(4-(2-oxo-2-(piperidin-1-yl)ethyl)piperazin-1-yl)tetrahydro-2H-pyran-4-yl)methyl)-N-phenylpropionamide]
pKi: < 6.30

CCC(=O)N(CC1(N2CCN(CC(C)C)CC2)CCOCC1)c1ncccc1C#N [Example 62, N-(3-cyanopyridin-2-yl)-N-((4-(4-isobutylpiperazin-1-yl)tetrahydro-2H-pyran-4-yl)methyl)propionamide]
μ and σ1 dual (binding to the σ1 receptor and the μ-opioid receptor expressed as Ki): ++

CCC(=O)N(CC1(N2CCN(Cc3ccc(C(F)(F)F)nc3)CC2)CC1)c1ccccc1 [Example 113, N-phenyl-N-((1-(4-((6-(trifluoromethyl)pyridin-3-yl)methyl)piperazin-1-yl)cyclopropyl)methyl)propionamide]
μ and σ1 dual (binding to the σ1 receptor and the μ-opioid receptor expressed as Ki): ++
